Measurements taken from patent US20240092846A1, “ENGINEERED CYCLOTIDES WITH POTENT BROAD ANTIMICROBIAL ACTIVITY” (priority 2022, published 2024).
Values after ≈ are worked out from the molar mass of the structure shown. Like-named read-outs stand apart in the source and are kept apart here. Positions of bridges follow the written chain, without caps; N, C: chain ends.

How the values were obtained:
[1] = test system: E. coli; details: CAMHB
Method: (§1) Broad-spectrum antimicrobial activity was evaluated using the broth microdilution assays against two different pathogens from four different species of bacteria (P. aeruginosa, S. aureus, K. pneumoniae, and E. coli) to determine if the cyclotides retained its potent activity. Broth microdilution assays were utilized to determine the minimum inhibitory concentrations (MICs) of our cyclotides according to the CLSI (formerly NCCLS) guidelines modifications as described below (40). The assay utilized cation-adjusted Mueller-Hinton broth (CAMHB) (Becton, Dickinson and Company, Franklin Lakes, NJ) which was prepared according to the manufacturer's instructions. Cyclotide solutions were prepared as 10× solutions in 0.01% acetic acid. Cyclotide were serially diluted two-fold at concentrations ranging from 25-0.05 μM that contained CAMHB and 0.04% bovine serum albumin (BSA) in polypropylene microtiter plates (Corning, Corning, NY). All bacteria were incubated overnight at 37° C. at 200 rpm in CAMHB and bacterial inoculum was adjusted with additional CAMHB to 0.5 McFarland standard through spectrophotometry at 600 nm. […] Study strains included a total of 20 P. aeruginosa and 20 methicillin resistant S. aureus strains from patients with cystic fibrosis at the Keck Medical Center of the University of Southern California. […] Colistin sulphate (Sigma-Aldrich, St Louis, MO) was used as a reference antibiotic for P. aeruginosa and E. coli, while vancomycin hydrochloride and meropenem trihydrate were used as reference antibiotics for S. aureus and K. pneumoniae.

[2] = test system: K. pneumoniae; details: CAMHB
Method: as §1

[3] = test system: P. aeruginosa; details: CAMHB; for MIC against P. aeruginosa: summary over the tested strains
Method: as §1

[4] = test system: S. aureus; details: CAMHB
Method: as §1

[5] = in vitro
Method: This was accomplished by incubating the corresponding peptides in human serum at 37° C. The quantitative analysis of undigested polypeptides was performed using liquid chromatography coupled with tandem mass spectrometry (LC-MS/MS). MCoTI-cyclotides present a very rigid structure,[24] which makes them extremely stable to proteolytic degradation.
Human serum stability. […]. Peptides were dissolved in water at 10 mg/mL concentration. 150 μg of peptides (15 μL) were mixed with 500 μL of human serum and incubated at 37° C. Samples (30 μL) were taken at various time intervals (0-120 h) and serum proteins were precipitated using 180 μL of acetonitrile containing 0.1% TFA. After centrifugation the pellet was dissolved in 8 M GdmCl and the supernatant was lyophilized and re-dissolved in 5% acetonitrile in water containing 0.1% formic acid. Both the supernatant and solubilized pellet fractions were analyzed by HPLC and LC-MS/MS. Each experiment was done in triplicate.

[6] = Maximum tolerated dose (MTD) toxicology study
Excerpt: (§2) Colistin was used as a control antibiotic.[28] […] For this purpose, Applicant employed a P. aeruginosa bacterial peritonitis model.[29] This animal model is a well-established acute infection model and is commonly utilized as a common preclinical screening method for new antibiotics.[30] Peritonitis in Balb/c mice (n=10) was established by intraperitoneal injection of 1.5×10^7 colony forming units (CFU) per mouse of P. aeruginosa (Schroeter) Migula (ATCC 27853).
Maximum tolerated dose (MTD) toxicology Studies. The MTD was determined using two different endpoints: weight loss and clinical scoring. Clinical scores were evaluated through activity, appearance and body condition, similar to previously published literature (42). […] Any dose escalation that leads to moderate toxicity (clinical score of >2) was ceased and the dose prior served as the MTD. Mice were monitored every hour for 4 h after injection on the first day. After 24 h, mice were monitored twice daily for another two days until weight and clinical scores were returned to normal. Mice that met the criteria for moribund included a >20% weight loss and clinical score of >3 and were euthanized.

[7] = test system: clinical isolates of methicillin-resistant S. aureus (MRSA); details: MRSA clinical isolates, n=20
Method: as §1

[8] = test system: clinical isolates of P. aeruginosa; details: clinical isolates, n=20
Method: as §1

[9] = test system: P. aeruginosa (Schroeter) Migula (ATCC 27853); test: P. aeruginosa-induced peritonitis murine model; format: in vivo, Balb/c mice; design: reference not given here; details: single i.p. dose 15 mg/kg, 7 days
Excerpt: as §2
P. aeruginosa-induced peritonitis murine model. Eight to 10-week-old Balb/c mice (Jackson Laboratory, Bar Harbor, ME) were housed five in a cage with standard chow and water ad libitum. To establish the model, 1.5×10^7 CFU of log-phase P. aeruginosa ATCC 27853 was injected intraperitoneally. […] Mice were monitored for 7 days and/or euthanized if any mice presented signs of moribundity.

[10] = S. aureus BAA977, clindamycin resistant strain
[11] = S. aureus HH35, methicillin resistant strain
[12] = S. aureus USA300, methicillin resistant strain
[13] = summary over the tested strains

CC[C@H](C)[C@@H]1NC(=O)[C@@H]2CSSC[C@@H]3NC(=O)[C@H](C(C)C)NC(=O)CNC(=O)CNC(=O)CNC(=O)[C@H](CCCNC(=N)N)NC(=O)[C@H](CCCNC(=N)N)NC(=O)CNC(=O)[C@H](C(C)C)NC(=O)[C@@H]4CSSC[C@H](NC(=O)[C@H](CC(C)C)NC(=O)[C@H](CCCNC(=N)N)NC(=O)CNC(=O)CNC(=O)CNC(=O)[C@H](CO)NC(=O)CNC(=O)[C@H](CO)NC(=O)CNC(=O)[C@@H]5CSSC[C@H](NC(=O)[C@H](CC(=O)O)NC(=O)[C@H](CO)NC(=O)[C@H](CC(=O)O)NC(=O)[C@H](CCCNC(=N)N)NC(=O)[C@H](CCCNC(=N)N)NC(=O)[C@H](CSSC[C@H](NC1=O)C(=O)N[C@@H](CCCNC(=N)N)C(=O)NCC(=O)N[C@@H](CC(N)=O)C(=O)NCC(=O)N[C@@H](Cc1ccc(O)cc1)C(=O)N5)NC(=O)[C@H](CCCNC(=N)N)NC(=O)[C@H](CCC(N)=O)NC(=O)[C@H](CC(C)C)NC(=O)[C@H]([C@@H](C)CC)NC(=O)[C@H](CCCCN)NC(=O)[C@@H]1CCCN1C3=O)C(=O)N1CCC[C@H]1C(=O)NCC(=O)N[C@@H](C)C(=O)N2)C(=O)N[C@@H](Cc1ccc(O)cc1)C(=O)N[C@H]1CSSC[C@H](NC(=O)[C@H](Cc2ccccc2)NC(=O)[C@H](CCCNC(=N)N)NC(=O)[C@H](CCCNC(=N)N)NC(=O)[C@H](CCCNC(=N)N)NC1=O)C(=O)N[C@@H](C(C)C)C(=O)N4 [MCo-PG4]
MIC ([1]; E. coli DS377): 1.6 µM (≈ 8.99 µg/mL) | MIC ([1]; E. coli K12): 1.6 µM (≈ 8.99 µg/mL) | MIC ([2]; K. pneumoniae BAA1705): 12.5 µM (≈ 70.2 µg/mL) | MIC ([2]; K. pneumoniae K6): 12.5 µM (≈ 70.2 µg/mL) | MIC ([3]; P. aeruginosa PA27853): 1.6 µM (≈ 8.99 µg/mL) | MIC against P. aeruginosa [3]: 1.6 µM (≈ 8.99 µg/mL) | MIC ([4]; S. aureus 25973): 12.5 µM (≈ 70.2 µg/mL) | MIC [4, 10]: 12.5 µM (≈ 70.2 µg/mL) | MIC [4, 11]: 12.5 µM (≈ 70.2 µg/mL) | MIC [4, 12]: 12.5 µM (≈ 70.2 µg/mL)

CC(C)C[C@H](NC(=O)[C@H](CCCNC(=N)N)NC(=O)CNC(=O)CNC(=O)[C@@H](N)CCCNC(=N)N)C(=O)N[C@H]1CSSC[C@@H](C(=O)N[C@H](C(=O)NCC(=O)N[C@@H](CCCNC(=N)N)C(N)=O)C(C)C)NC(=O)[C@H](C(C)C)NC(=O)[C@@H]2CSSC[C@H](NC(=O)[C@H](Cc3ccc(O)cc3)NC1=O)C(=O)N[C@@H](CCCNC(=N)N)C(=O)N[C@@H](CCCNC(=N)N)C(=O)N[C@@H](CCCNC(=N)N)C(=O)N[C@@H](Cc1ccccc1)C(=O)N2 [PG-1, reference compound]
degradation in human serum within the first 24 h (in words) ([5]; 37° C.): significant degradation | metabolised at 24 h, 0.29 mg/mL ([5]; human, human serum): ~55% | half-life at 0.29 mg/mL ([5]; human, human serum, t1/2 in human serum, 37° C., LC-MS/MS): 30 ± 3 h | MTD at 3 days ([6]; Balb/c, mouse, in vivo, ip): 5 mg/kg

CN[C@H](CC(C)C)C(=O)N[C@H]1C(=O)N[C@@H](CC(N)=O)C(=O)N[C@H]2C(=O)N[C@H]3C(=O)N[C@H](C(=O)N[C@H](C(=O)O)c4cc(O)cc(O)c4-c4cc3ccc4O)[C@H](O)c3ccc(c(Cl)c3)Oc3cc2cc(c3O[C@@H]2O[C@H](CO)[C@@H](O)[C@H](O)[C@H]2O[C@H]2C[C@](C)(N)[C@H](O)[C@H](C)O2)Oc2ccc(cc2Cl)[C@H]1O [Vancomycin, reference compound]
S. aureus MICrange [7]: 0.5 to 1.4 µM

Colistin
P. aeruginosa MIC50 [8]: ≤0.2 µM | P. aeruginosa MIC90 [8]: 0.4 µM | P. aeruginosa MICrange [8]: ≤0.2 to 0.4 µM | maximum tolerated dose (well tolerated intraperitoneal dose) ([6]; Balb/c mice, single i.p. dose, endpoints weight loss and clinical score): 15 mg/kg | hazard ratio [HR] (survival) ([9]; 12.3 μmol/kg, as printed in legend of FIG. 4): 24.8 | hazard ratio [HR] (survival) [9]: 0.040

cyclo(GGVCPKILQRCRRDSDCPGACICRGNGYCGSGSGGCLCYCRRRFCVCVCRR) (disulfide 4-21, 11-23, 17-29, 36-49, 38-47, 40-45 (inferred); ring closure inferred) [MCo-PG3]
MIC ([1]; E. coli K12): >25 µM | MIC against E. coli [1, 13]: above 25 μM | MIC ([2]; K. pneumoniae K6): >25 µM | MIC against K. pneumoniae [2, 13]: above 25 μM | MIC ([3]; P. aeruginosa PA27853): 25 µM | MIC against P. aeruginosa [3]: 25 µM | MIC ([4]; S. aureus 25973): >25 µM | MIC [4, 10]: >25 µM | MIC [4, 11]: >25 µM | MIC against S. aureus [4, 13]: above 25 μM

cyclo[GGVCPKILQRCRRDSDCPGACICRGNGYCGSGSGRLCYCRRRFCVCVGR] (cyclo(GGVCPKILQRCRRDSDCPGACICRGNGYCGSGSGRLCYCRRRFCVCVGR); not fully specified; printed as cyclo[GGVCPKILQRCRRDSDCPGACICRGNGYCGSGSGRLCYCRRRFCVCVGR]; cysteine pairing not given here) [MCo-PG5]
MIC ([1]; E. coli DS377): 1.6 µM | MIC ([1]; E. coli K12): 1.6 µM | MIC ([2]; K. pneumoniae BAA1705): 6.2 µM | MIC ([2]; K. pneumoniae K6): 6.2 µM | MIC ([3]; P. aeruginosa PA27853): 3.1 µM | MIC ([3]; P. aeruginosa PAO1): 3.1 µM | MIC ([4]; S. aureus 25973): 12.5 µM | MIC [4, 10]: 12.5 µM | MIC [4, 11]: 12.5 µM | MIC [4, 12]: 12.5 µM
